Tests used:
[1] = tested on: leukotriene biosynthesis; test: In vivo inhibition of leukotriene biosynthesis, rat peritoneal anaphylaxis model; settings: 1 h, 200 μmol/kg oral dose, gavage one hour prior to antigen challenge, read-out: Percent Inhibition
Protocol: Inhibition of the biosynthesis of leukotrienes in vivo after oral administration of compound was determined using a rat peritoneal anaphylaxis model in a similar manner as that described by Young and coworkers (Young, P. R.; Dyer, R. D.; Carter, G. W. Fed. Proc., Fed. Am. Soc. Exp. Biol. 1985, 44, 1185). In this model rats were injected intraperitoneally (ip) with rabbit antibody to bovine serum albumin (BSA) and three hours later injected ip with BSA to induce an antgen-antibody response. Rats were sacrificed 15 minutes after this challenge and the peritoneal fluids were collected and analyzed for leukotriene levels. Test compounds were administered by gavage one hour prior to the antigen challenge. Percent inhibition values were determined by comparing the treatment group to the mean of the control group.

[2] = molecular target: T1, 5-Lipoxygenase from RBL-1 20,000 xg Supernatant (Rattus norvegicus, UniProt P12527); test: In vitro inhibition of 5-lipoxygenase from RBL-1 20,000 xg supernatant; type: biochemical; settings: radiolabeled arachidonic acid
T1 construct: supermatant from 1.5 million homogenized RBL-1 cells; endogenous in cells; host or cells: RBL-1 cells, 20,000 x g supernatant of homogenate
T1 sequence (P12527 1-673): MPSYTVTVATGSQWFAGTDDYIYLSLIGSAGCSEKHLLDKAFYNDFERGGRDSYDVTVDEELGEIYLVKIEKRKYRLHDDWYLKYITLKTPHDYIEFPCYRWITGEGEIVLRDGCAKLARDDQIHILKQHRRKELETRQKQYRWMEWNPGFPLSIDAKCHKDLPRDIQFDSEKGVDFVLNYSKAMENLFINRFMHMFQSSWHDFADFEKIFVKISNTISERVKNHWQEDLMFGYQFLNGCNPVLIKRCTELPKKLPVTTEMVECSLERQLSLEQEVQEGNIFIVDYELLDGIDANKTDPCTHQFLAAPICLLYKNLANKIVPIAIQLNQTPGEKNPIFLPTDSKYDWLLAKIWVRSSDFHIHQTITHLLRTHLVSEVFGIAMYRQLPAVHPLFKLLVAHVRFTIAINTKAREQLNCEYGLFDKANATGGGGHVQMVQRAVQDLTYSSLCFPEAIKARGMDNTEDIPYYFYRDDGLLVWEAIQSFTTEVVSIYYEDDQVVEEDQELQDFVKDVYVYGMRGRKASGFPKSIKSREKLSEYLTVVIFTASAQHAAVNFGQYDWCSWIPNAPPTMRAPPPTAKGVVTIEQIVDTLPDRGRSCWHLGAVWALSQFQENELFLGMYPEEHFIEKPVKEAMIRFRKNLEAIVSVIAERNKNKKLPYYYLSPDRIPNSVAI
Protocol: Assays to determine 5-lipoxygenase inhibitory activity were performed in […] incubations containing the 20,000xg supermatant from 1.5 million homogenized RBL-1 cells and various concentrations of the test compound. Reactions were initiated by addition of radiolabeled arachidonic acid and terminated by acidification and ether extraction. Reaction products were separated from nonconverted substrate by thin layer chromatography and measured by liquid scintillation spectroscopy. All incubations are performed in triplicate. Inhibition of 5-lipoxygenase activity was calculated as the ratio of the amount of product formed in the presence and absence of inhibitor. […] (Dyer, R.D.; Haviv, F.; Hanel, A. M.; Bornemier, D. A.; Carter, G. W. Fed. Proc., Fed. Am. Soc. Exp. Biol. 1984, 43, 1462A).

[3] = tested on: 5-lipoxygenase; settings: cited from earlier work

SMILES	IC50 [2]	inhibition in vivo at 200 µmol/kg [1]	5-lipoxygenase inhibition [3]
CCC(c1ccc(Br)cc1)N(O)C(N)=O (centres unmarked) [Example 102, N-Hydroxy-N-(1-(4-bromophenyl)propyl) urea]	–	85%	–
CC(c1ccc(C(F)(F)F)cc1)N(O)C(N)=O (centres unmarked) [Example 111, N-Hydroxy-N-(1-(4-trifluoromethylphenyl)ethyl) urea]	–	97%	–
CC(c1ccc(F)cc1)N(O)C(N)=O (centres unmarked) [Example 109, N-Hydroxy-N-(1-(4-fluorophenyl)ethyl) urea]	1800 nM	98%	–
CNC(=O)N(O)Cc1cccs1 [Example 50, N-hydroxy-N-(thien-2-yl)methyl-N'-methyl urea]	6700 nM	90%	–
CC(c1ccc(-c2ccccc2)cc1)N(O)C(N)=O (centres unmarked) [Example 120, N-Hydroxy-N-(1-(4-biphenyl)ethyl) urea]	–	77%	–
CC(c1ccc(Br)cc1)N(O)C(N)=O (centres unmarked) [Example 97, N-Hydroxy-N-1-(4-bromophenyl)ethylurea]	200 nM	94%	–
O=C(O)c1cc(/N=N/c2ccc(S(=O)(=O)Nc3ccccn3)cc2)ccc1O [sulfasalazine]	–	–	weak 5-lipoxygenase inhibitor
CC(c1ccc(Br)cc1)N(O)C(=O)NCCO (centres unmarked) [Example 99, N-Hydroxy-N-1-(4-bromophenyl)ethyl-N'-(2-hydroxyethyl)-urea]	300 nM	84%	–
Cc1ccc(C(C)N(O)C(N)=O)s1 (centres unmarked) [Example 12, N-Hydroxy-N-1-(5-methylthien-2-yl)ethyl urea]	530 nM	94%	–
CCC(c1ccc(Br)cc1)N(O)C(=O)NC (centres unmarked) [Example 103, N-Hydroxy-N-(1-(4-bromophenyl)propyl)-N'-methylurea]	–	88%	–
Cc1ccsc1CN(O)C(N)=O [Example 49, N-hydroxy-N-(3-methylthien-2-yl)methyl urea]	–	94%	–
CC(c1ccc2ccccc2c1)N(O)C(N)=O (centres unmarked) [Example 9, N-hydroxy-N-(1-(2-naphthyl)ethyl) urea]	–	69%	–
CC(c1ccsc1)N(O)C(N)=O (centres unmarked) [Example 43, N-Hydroxy-N-1-(thien-3-yl)ethyl urea]	3500 nM	66%	–
Cc1cc(C(C)N(O)C(N)=O)c(C)s1 (centres unmarked) [Example 42, N-Hydroxy-N-1-(2,5-dimethylthien-3-yl)ethyl urea]	1500 nM	64%	–
NC(=O)N(O)CC=Cc1ccsc1 [Example 68, N-hydroxy-N-(3-(1-thien-3-yl)propenyl) urea]	1900 nM	93%	–
CCCCOc1ccc(C(C)N(O)C(N)=O)cc1 (centres unmarked) [Example 11, N-hydroxy-N-(1-(4-butoxyphenyl)ethyl) urea]	1100 nM	–	–
C=CCN(CC=C)c1ccc(C(C)N(O)C(N)=O)cc1 (centres unmarked) [Example 121, N-Hydroxy-N-(1-(4-bis-allylaminophenyl)ethyl) urea]	740 nM	–	–
CNC(=O)N(O)C(C)c1ccc(Cl)c(C)c1 (centres unmarked) [Example 124, N-Hydroxy-N-(1-(4-chloro-3-methylphenyl)ethyl)-N'-methyl urea]	600 nM	–	–
CC(c1cccs1)N(O)C(N)=O (centres unmarked) [Example 47, N-hydroxy-N-(1-thien-2-yl)ethyl urea]	3700 nM	94%	–
Cc1ccsc1C(C)N(O)C(N)=O (centres unmarked) [Example 46, N-hydroxy-N-1-(3-methylthien-2-yl)ethyl urea]	2100 nM	–	–

Second part, led by results:

IC50 [2]	SMILES	inhibition in vivo at 200 µmol/kg [1]	5-lipoxygenase inhibition [3]
500 nM	CC(c1ccc(OCc2ccccc2)cc1)N(O)C(=O)NO (centres unmarked) [Example 4]	63%	–
6800 nM	NC(=O)N(O)Cc1cccs1 [Example 45, N-hydroxy-N-(thien-2-yl)methyl urea]	97%	–
2100 nM	NC(=O)N(O)Cc1ccc(-c2ccccn2)s1 [Example 55, N-hydroxy-N-(1-(5-(pyrid-2-yl)thien-2-yl)methyl) urea]	71%	–
800 nM	NC(=O)N(O)Cc1ccc(Br)cc1 [Example 100, N-Hydroxy-N-4-bromobenzylurea]	95%	–
300 nM	CNC(=O)N(O)Cc1ccc(Br)cc1 [Example 101, N-Hydroxy-N-4-bromobenzyl-N'-methyl urea]	93%	–
1400 nM	COc1cc(C(C)N(O)C(N)=O)cc(OC)c1OCc1ccccc1 (centres unmarked) [Example 7, N-hydroxy-N-(1-(4-phenylmethoxy-3,5-dimethoxyphenyl)ethyl) urea]	88%	–
430 nM	CC(c1ccc(OCc2ccccc2)cc1)N(O)C(N)=O (centres unmarked) [Example 1, N-hydroxy-N-(1(4-phenylmethoxyphenyl)ethyl)urea]	58%	–
600 nM	CC(c1ccc(Cl)cc1)N(O)C(N)=O (centres unmarked) [Example 107, N-Hydroxy-N-(1-(4-chlorophenyl)ethyl) urea]	99%	–
400 nM	CC(c1ccc(-c2ccccc2)s1)N(O)C(N)=O (centres unmarked) [Example 56, N-hydroxy-N-(1-(5-phenylthien-2-yl)ethyl)urea]	89%	–
300 nM	Cc1ccc(C(C)N(O)C(N)=O)cc1 (centres unmarked) [Example 113, N-Hydroxy-N-(1-(4-methylphenyl)ethyl) urea]	94%	–
200 nM	Cc1ccc(CN(O)C(N)=O)s1 [Example 51, N-hydroxy-N-(5-methylthien-2-yl)methyl urea]	94%	–
4900 nM	NC(=O)N(O)Cc1ccsc1 [Example 44, N-Hydroxy-N-(thien-3-yl)methyl urea]	87%	–
610 nM	NC(=O)N(O)Cc1ccc(OCc2ccccc2)cc1 [Example 5, N-hydroxy-N-(4-phenylmethoxyphenylmethyl) urea]	74%	–
2000 nM	NC(=O)N(O)Cc1ccc(Cl)s1 [Example 129, N-hydroxy-N-(5-chlorothien-2-yl)methyl urea]	–	–

From US5185363A, “Urea based lipoxygenase inhibiting compounds” (Abbott Laboratories, priority 1991, dated 1993)
